According to ChEMBL document CHEMBL4765259, “Synthesis and biological evaluation of novel shikonin-benzo[b]furan derivatives as tubulin polymerization inhibitors targeting the colchicine binding site” (Eur J Med Chem, 2020):
Calls of active or inactive are those of the source. The rule behind the calls is not given here.

System: HT-29
Assay: Induction of microtubule disruption in human HT-29 cells at 0.5 uM incubated for 24 hrs by DAPI staining based confocal fluorescence microscopic analysis
Format: cell-based

Question: With `CC(=O)O[C@H]1C(=O)[C@@]2(C)[C@H]([C@H](OC(=O)c3ccccc3)[C@]3(O)C[C@H](OC(=O)[C@H](O)[C@@H](NC(=O)c4ccccc4)c4ccccc4)C(C)=C1C3(C)C)[C@]1(OC(C)=O)CO[C@@H]1C[C@@H]2O` as the molecule, how does the Activity read?
Answer: inactive
